Columns and labels:
the cells = experiment: Culture conditions described herein with upstream/downstream ROCK pathway inhibitor in place of a ROCK inhibitor; assay type: cell-based; settings: used in the culture conditions in place of a ROCK inhibitor
Excerpt: As used herein, inhibiting ROCK can mean to reduce the activity, function, or expression of at least one of ROCK1 or ROCK2. […] In general, ROCK phosphorylates LEVI kinase and myosin light chain (MLC) phosphatase after being activated through binding of GTP-bound Rho. One embodiment of the present invention thus involves blocking the upstream pathway of ROCK1 and/or ROCK2, for example GTP-bound Rho, such that ROCK1 and/or ROCK2 is not activated or its activity is reduced over untreated cells. Other upstream effectors include, but are not limited to, integrins, growth factor receptors, including but not limited to, TGF-beta and EGFR, cadherins, G protein coupled receptors and the like. Another embodiment of the present invention thus involves blocking the activity, function, or expression of downstream effector molecules of activated ROCK1 and/or ROCK2 such that ROCK1 and/or ROCK2 cannot propagate any signal or can only propagate a reduced signal over untreated cells. Downstream effectors include, but are not limited to, myosin phosphatase-targeting protein (MYPT), vimentin, LIMK, myosin light chain kinase, NHE1, cofilin, Myosin II and the like.

airway epithelial cells = settings: cited from earlier work

| Molecule | effect on cells (differentiation / proliferation in vitro) (the cells) | effect of inhibition on airway epithelial cells (airway epithelial cells) |
| --- | --- | --- |
| Cc1ccc2c(c1)C(=O)C1(O)CCN(c3ccccc3)C1=N2 (stereo not shown) [blebbistatin] | allow the cells to bypass differentiation and allow proliferation in vitro |  |
| C3 transferase | allow the cells to bypass differentiation and allow proliferation in vitro |  |
| C[C@@H](N)[C@H]1CC[C@H](C(=O)Nc2ccncc2)CC1 [Y-27632] |  | induces membrane ruffling, loss of actin stress fibers and apoptosis |
| O=S(=O)(c1cccc2cnccc12)N1CCCNCC1 [HA 1077, fasudil] |  | induces membrane ruffling, loss of actin stress fibers and apoptosis |

Reference: patent publication US20230167414A1, “METHODS FOR ISOLATING AND CULTURING TUMOR CELLS” (Georgetown University, priority 2020, published 2023)
